# Laboratory results from ChEMBL document CHEMBL1140673, “Agonist lead identification for the high affinity niacin receptor GPR109a” (Bioorg Med Chem Lett, 2007).
# Activity calls are given as the source filed them. The calls are words filed in the database; no cut-off is given here.
# Target: Hydroxycarboxylic acid receptor 3 (Homo sapiens) (UniProt P49019)
# Test: Agonist activity at human cloned GPR109b receptor at 100 uM by forskolin-stimulated cAMP production test
# Format: functional
# Sequence of Hydroxycarboxylic acid receptor 3 (Homo sapiens) (P49019 whole entry): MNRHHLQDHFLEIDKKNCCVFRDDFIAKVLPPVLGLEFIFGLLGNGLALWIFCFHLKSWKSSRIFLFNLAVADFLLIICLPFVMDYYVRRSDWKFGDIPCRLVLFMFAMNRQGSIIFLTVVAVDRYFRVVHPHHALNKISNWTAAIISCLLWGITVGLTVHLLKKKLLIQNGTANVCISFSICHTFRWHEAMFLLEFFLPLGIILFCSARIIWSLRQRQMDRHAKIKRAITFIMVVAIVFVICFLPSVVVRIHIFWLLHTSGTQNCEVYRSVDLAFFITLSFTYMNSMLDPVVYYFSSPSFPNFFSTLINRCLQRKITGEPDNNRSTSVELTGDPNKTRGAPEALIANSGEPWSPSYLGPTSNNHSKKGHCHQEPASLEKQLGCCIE
smiles,measurement,value
Cc1cc(C(=O)O)n[nH]1,Activity,inactive
